These are literature values, as cited in patent US20050065131A1, “2-alkylidene-19-nor-vitamin D derivatives for enhancement of peak bone mass in adolescence” (Pfizer Inc, priority 2003, published 2005).

In this series the test system is Bone Calcium Mobilization. The conditions noted are these: at both dose levels (130 and 260 pmol/day), 7 days.

In the case of `C=C1[C@H](O)CC(=C/C=C2\CCC[C@]3(C)[C@@H]([C@H](C)CCCC(C)(C)O)CC[C@@H]23)C[C@H]1O` [2-Methylene-19-Nor-1,25-(OH)2D3, 1α,25-dihydroxy-2-methylene-19-nor-vitamin D3], the “bone calcium mobilization, result in words” value is listed as “extremely strong”.
